One assay relates to CIA rats. As to the kind of experiment: CIA rat model: inflammation score AUC and peripheral blood T-cell subtypes (Example 3). It is filed as in vivo. The settings on record: 0.2 mmol. As to the method: Collagen-induced arthritis (CIA) model was established by intradermal injection of the emulsion formulated using type II bovine collagen (CII) together with incomplete Freund's adjuvant (IFA) into the tail head of a female Lewis rat. After the model establishment, the morphological changes of rats' four paws were examined every day. […] Except for the model group, the dosage of polypeptide was all set as 0.2 mmol. A control group was also set up, in which the drug was injected into the tail vein once every other day for […]. The area under the curve (AUC) of the inflammation score was used for the efficacy analysis from the day the rats were enrolled, once every other day, until the end of administration.

For the next assay, the system named is PBMC. As to the kind of experiment: PBMC stimulation test, IL-6 in supernatant by ELISA. The settings on record: PBMC 1×10^6 cell/ml, peptide 10 μg/ml, 5 days of culture. It is filed as cell-based, human. The essentials: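 Human PBMC isolated from blood by Ficoll density centrifugation, seeded at 1×10^6 cell/ml in 1640 complete medium with peptide at final 10 μg/ml. Cultured 5 days; IL-6 in supernatant measured by ELISA.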

Setting [1] is: peripheral blood, […] after end of administration, flow cytometry.

Where no end group is shown, it is not given here.

For the sequence FKGEQAGAGE [APL2], in the assay with CIA rats (female Lewis CIA rats, tail vein once every other day for 15 days), the “Inflammation score and area under the time curve (AUC)” value came to 52.37 ± 33.69. Also, in the assay with CIA rats (setting [1]), the “Th1 (%)” value amounted to 0.16 ± 0.09 %, the “Th2 (%)” value stood at 4.53 ± 0.50 %, the “Th17 (%)” value was found to be 0.87 ± 0.09 % and the “Treg (%)” value was 5.52 ± 0.68 %. Besides, the “IL-6 levels in the supernatant” value in the assay with PBMC came to 2.3 ng/mL.

These data come from patent US20250074946A1, “USE OF SE-DR AFFINITY PEPTIDE IN PREPARING DRUG FOR TREATING RHEUMATIC DISEASE” (HEBEI FITNESS BIOTECHNOLOGY CO., LTD., priority 2021, published 2025).
